Assay results reported in patent US11273150B2, “Compositions and methods for the treatment of presbyopia” (priority 2018, dated 2022).
Values joined by “and” are separate entries in the source; they are usually repeats but may differ in a detail not shown here. Equal values may be shown once. One block for each compound: values may come before it.

What was measured:
eye [1] = experiment: Clinical observations stated in the description (miosis, duration, blur, redness, anterior chamber); type: in vivo, human
presbyopic subjects = experiment: Effect of aceclidine on vision of presbyopic subjects aged 47 to 67 years (Example 1); type: in vivo, human; details: for Effect: duration of effect; for L Post Dist: left eye distance vision; for L Post Dist / L Post Near / R Post Dist / R Post Near: Post Gtt 15″; for R Post Dist: right eye distance vision
Experimental: As aceclidine is an […], the clinical effectiveness may vary with different ratios. For the present studies a nearly exact 50:50 ratio of stereoisomers was measured as best determined by polarimetry.
After administration of the composition all subjects experienced an improvement in their near vision that lasted from 7 to 12 hours.

[2] = tested on: emmetrope over the age of 45; experiment: Effects of pilocarpine and aceclidine with or without tropicamide and carrier on near and distance vision (FIG. 1); type: in vivo, human
From the text: Subject is an emmetrope over the age of 45 with a baseline near vision of 20.100 and baseline distance vision of 20.20. Topical administration to the eye of 1% w/v pilocarpine in saline solution results in an improvement of near vision to 20.40 (8a), however this improvement comes at the expense of a reduction in distance vision to 20.100 (8b). […] A proper drug carrier can also have a beneficial effect.

[3] = Aceclidine total related substances after storage with or without Mylar lined pouches (Example 18); type: physicochemical
Experimental: Aceclidine total related substances was recorded at 1, 2, 3 and 6 months.
Mylar® was used as the source of biaxially-oriented polyethylene terephthalate. Mylar is a registered trademark of and available from DuPont Teijin Films US Limited.

[4] = Aceclidine potency following storage (Example 19); type: physicochemical
eye [5] = experiment: Effect of concentration of aceclidine, brimonidine, guanfacine, fadolmidine, tropicamide and additives (Example 3); type: in vivo, human
Experimental: All percentages are w/v. Scores for nasal congestion, stinging initial, stinging, 3 min, redness initial, redness 15 min, whitening, pain and overall are out of 4.
“pt” reflects size of print materials, 4 being equivalent to 20/20 vision and 3 to 20/15 vision.
Baseline vision was 20.20 both eyes for distance; 20.70 right eye unaided for near; 20.80 left eye for near (best @ 16″).
D/C stands for discontinued after eye washing due to intolerable stinging.
All baseline vision data was based on vision corrected with distance contact lenses. Near vision was noted by subject as outstanding from 8 to 10 inches to the horizon at 30 minutes after installation for AB4T and AB6T.
AB4T and AB6T were repeated both monocularly and binocularly. Substantial improvement in depth perception, near point acuity to 3 pt (20.15), and near point distance (8″, 20.20) was noted when both eyes were treated vs. monocular treatment.

[6] = Stability of aceclidine at 25° C. and 4° C. by HPLC (Example 10); type: physicochemical
Experimental: 20 samples of the above composition were divided evenly and stored at 25° C. and 4° C. Prior to storage, initial concentrations of aceclidine were measured using […] (“HPLC”). The amount of aceclidine in each solution was calculated by the area under the principal peak compared to a reference solution of aceclidine. Samples were then subject to storage for 3 months. Aceclidine measurements were taken at 1, 2 and 3 months.

eye [7] = details: cited from earlier work
eye [8] = experiment: Efficacy and comfort of various nonionic surfactants (Example 15, Table 10); design: species or system human; details: in vivo
From the text: Duration was excellent for each nonionic surfactant tested.

[9] = aceclidine 1.1% w/v + 0.125% w/v tropicamide, subjects 4 and 5
[10] = aceclidine 1.5% w/v in HPβCD/CMC/NaCl/BAK, one line per subject
[11] = Pouched (5 C.), first listing (r9)
[12] = Pouched (5 C.), second listing (r12)
[13] = Pouched (25 C.), first listing (r10)
[14] = Pouched (25 C.), second listing (r13)
[15] = Pouched (5 C.), first group (initial 99.70%)
[16] = Pouched (5 C.), second group (initial 99.60%)
[17] = Pouched (25 C.), first group (initial 99.70%)
[18] = Pouched (25 C.), second group (initial 99.60%)

Compound: CC(=O)OC1CN2CCC1CC2 (stereo not drawn) [Aceclidine, aceclidine]
- anterior chamber shallowing (eye [1]; aceclidine with further inclusion of a cycloplegic agent): 0.04 mm
- Effect (presbyopic subjects; [9]): 7.00 h and 12.00 h
- Effect (presbyopic subjects; [10]): 8.00 h (4×) and 9.00 h
- L Post Dist (presbyopic subjects; [9]): 20.20 and 20.15
- L Post Dist (presbyopic subjects; [10]): 20.20 (2×) and 20.30 and 20.25 (2×)
- L Post Near (presbyopic subjects; left eye near vision (15 inches), aceclidine 1.5% w/v in HPβCD/CMC/NaCl/BAK, one line per subject): 20.15 (3×) and 20.30 and 20.20
- L Post Near (presbyopic subjects; left eye near vision, aceclidine 1.1% w/v + 0.125% w/v tropicamide, subjects 4 and 5): 20.25 and 20.15
- R Post Dist (presbyopic subjects; aceclidine 1.1% w/v + 0.125% w/v tropicamide, same carrier, subjects 4 and 5): 20.20 and 20.15
- R Post Dist (presbyopic subjects; [10]): 20.20 (3×) and 20.25 (2×)
- R Post Near (presbyopic subjects; right eye near vision (15 inches), aceclidine 1.5% w/v in HPβCD/CMC/NaCl/BAK, one line per subject): 20.15 (3×) and 20.20 and 20.25
- R Post Near (presbyopic subjects; right eye near vision, aceclidine 1.1% w/v + 0.125% w/v tropicamide, subjects 4 and 5): 20.25 and 20.20
- extended time period of near vision improvement ([2]; 1.55% w/v aceclidine in saline solution): 6 h
- distance vision ([2]; 1.55% w/v aceclidine in saline solution, baseline 20.20): without any effect on the baseline distance vision
- near vision ([2]; 1.55% w/v aceclidine in saline solution, baseline near 20.100): 20.40
- near vision ([2]; aceclidine + 0.042% w/v tropicamide in the carrier): 20.15
- near vision ([2]; aceclidine in carrier (5.5% HPβCD, 0.75% CMC, 0.25% NaCl, 0.01% BAK), better than): > 20.20
- Aceclidine Total Related Substances, One Month Result [3, 11]: 0.54%
- Aceclidine Total Related Substances, Six Month Result [3, 11]: 0.47%
- Aceclidine Total Related Substances, Three Month Result [3, 11]: 0.35%
- Aceclidine Total Related Substances, Total % Change [3, 11]: 0.06%
- Aceclidine Total Related Substances, One Month Result [3, 12]: 0.50%
- Aceclidine Total Related Substances, Six Month Result [3, 12]: 0.00%
- Aceclidine Total Related Substances, Three Month Result [3, 12]: 0.18%
- Aceclidine Total Related Substances, Total % Change [3, 12]: −0.41%
- Aceclidine Total Related Substances, One Month Result [3, 13]: 0.55%
- Aceclidine Total Related Substances, Six Month Result [3, 13]: 0.36%
- Aceclidine Total Related Substances, Three Month Result [3, 13]: 1.26%
- Aceclidine Total Related Substances, Total % Change [3, 13]: −0.05% and 0.05%
- Aceclidine Total Related Substances, One Month Result [3, 14]: 0.74%
- Aceclidine Total Related Substances, Six Month Result [3, 14]: 0.00%
- Aceclidine Total Related Substances, Three Month Result [3, 14]: 0.31%
- Aceclidine Total Related Substances, Total % Change [3, 14]: −0.41%
- Aceclidine Total Related Substances, One Month Result ([3]; Pouched (−20 C.)): 0.74%
- Aceclidine Total Related Substances, Six Month Result ([3]; Pouched (−20 C.)): 0.00%
- Aceclidine Total Related Substances, Three Month Result ([3]; Pouched (−20 C.)): 0.25%
- Aceclidine Total Related Substances, Total % Change ([3]; Pouched (−20 C.)): −0.41%
- Aceclidine Total Related Substances, One Month Result ([3]; Unpouched (5 C.)): 0.55%
- Aceclidine Total Related Substances, Six Month Result ([3]; Unpouched (5 C.)): 0.49%
- Aceclidine Total Related Substances, Three Month Result ([3]; Unpouched (5 C.)): 0.05%
- Aceclidine Total Related Substances, Total % Change ([3]; Unpouched (5 C.)): 0.08%
- Aceclidine Total Related Substances, Two Month Result ([3]; Unpouched (5 C.)): 0.51%
- Aceclidine Total Related Substances, Initial Result ([3]; Unpouched (5 C.) line, initial): 0.41%
- Aceclidine Total Related Substances, One Month Result ([3]; Unpouched (25 C.)): 0.58%
- Aceclidine Total Related Substances, Six Month Result ([3]; Unpouched (25 C.)): 4.87%
- Aceclidine Total Related Substances, Three Month Result ([3]; Unpouched (25 C.)): 1.39%
- Aceclidine Total Related Substances, Total % Change ([3]; Unpouched (25 C.)): 4.46%
- Aceclidine Total Related Substances, Two Month Result ([3]; Unpouched (25 C.)): 1.45%
- Aceclidine Potency, One Month Result [4, 15]: 100.0%
- Aceclidine Potency, Six Month Result [4, 15]: 100.8%
- Aceclidine Potency, Three Month Result [4, 15]: 99.7%
- Percent Change Between Initial and Six Month Results [4, 15]: 1.1%
- Aceclidine Potency, One Month Result [4, 16]: 99.5%
- Aceclidine Potency, Six Month Result [4, 16]: 102.2%
- Aceclidine Potency, Three Month Result [4, 16]: 102.3%
- Percent Change Between Initial and Six Month Results [4, 16]: 2.6%
- Aceclidine Potency, One Month Result [4, 17]: 98.4%
- Aceclidine Potency, Six Month Result [4, 17]: 94.9%
- Aceclidine Potency, Three Month Result [4, 17]: 97.5%
- Percent Change Between Initial and Six Month Results [4, 17]: −4.8%
- Aceclidine Potency, One Month Result [4, 18]: 103.0%
- Aceclidine Potency, Six Month Result [4, 18]: 96.0%
- Aceclidine Potency, Three Month Result [4, 18]: 99.0%
- Percent Change Between Initial and Six Month Results [4, 18]: 3.6%
- Aceclidine Potency, One Month Result ([4]; Pouched (−25 C.)): 98.5%
- Aceclidine Potency, Six Month Result ([4]; Pouched (−25 C.)): 103.1%
- Aceclidine Potency, Three Month Result ([4]; Pouched (−25 C.)): 101.4%
- Percent Change Between Initial and Six Month Results ([4]; Pouched (−25 C.)): 3.5%
- Aceclidine Potency, Initial Result ([4]; Pouched (−25 C.) line, initial of second group): 99.60%
- Aceclidine Potency, One Month Result ([4]; Unpouched (5 C.)): 99.3%
- Aceclidine Potency, Six Month Result ([4]; Unpouched (5 C.)): 100.5%
- Aceclidine Potency, Three Month Result ([4]; Unpouched (5 C.)): 100.0%
- Aceclidine Potency, Two Month Result ([4]; Unpouched (5 C.)): 102.0%
- Percent Change Between Initial and Six Month Results ([4]; Unpouched (5 C.)): 0.8%
- Aceclidine Potency, Initial Result ([4]; Unpouched (5 C.) line, initial of first group): 99.70%
- Aceclidine Potency, One Month Result ([4]; Unpouched (25 C.)): 98.2%
- Aceclidine Potency, Six Month Result ([4]; Unpouched (25 C.)): 97.7%
- Aceclidine Potency, Three Month Result ([4]; Unpouched (25 C.)): 98.2%
- Aceclidine Potency, Two Month Result ([4]; Unpouched (25 C.)): 101.9%
- Percent Change Between Initial and Six Month Results ([4]; Unpouched (25 C.)): −2.0%
- corrected near and distance vision to 20.20 or better, duration (eye [5]; aceclidine 1.55% w/v): at least 6 hours
- noticeable affect lasting (eye [5]; aceclidine 1.55% w/v): about 7.5 hours
- size of the pupil (eye [5]; aceclidine 1.55% w/v, 30 minutes after topical instillation): about 1.63 mm
- near vision improvement (eye [5]; aceclidine lowered to 1.25% w/v (not shown)): 20.25-20.30
- Stability of Aceclidine, 1 month ([6]; 4° C., Example 10 composition): 93%
- Stability of Aceclidine, 2 months ([6]; 4° C., Example 10 composition): 92%
- Stability of Aceclidine, 3 months ([6]; 4° C., Example 10 composition): 88%
- Stability of Aceclidine, Initial ([6]; 4° C., Example 10 composition): 100%
- Stability of Aceclidine, 1 month ([6]; 25° C., Example 10 composition): 92%
- Stability of Aceclidine, 2 months ([6]; 25° C., Example 10 composition): 75%
- Stability of Aceclidine, 3 months ([6]; 25° C., Example 10 composition): 50%
- Stability of Aceclidine, Initial ([6]; 25° C., aceclidine 1.50%, tropicamide 0.042%, polyoxyl 40 stearate 5.5%, mannitol 2.5%, citrate 3 mM, pH 4.75): 100%

Compound: Brc1c(NC2=NCCN2)ccc2nccnc12 [brimonidine]
- rebound redness, patients (eye [7]; brimonidine 0.20% w/v (Alphagan®) twice daily): 25%
- tachyphylaxis of pupil modulation, treated subjects (eye [7]; brimonidine 0.20% w/v topically for night vision, within four weeks of use, almost): ~100%

Compound: CC[C@@H]1C(=O)OC[C@@H]1Cc1cncn1C [pilocarpine]
- distance blur (eye [1]; pilocarpine instilled monocularly): 2-3 lines
- pupil size (eye [1]; upon instillation of 1.0% pilocarpine, or larger in most subjects): ≥ 2.3 mm

Compound: Poloxamer 407
- Redness 1 hr (eye [8]): 1
- Stinging (eye [8]): 0.5

The remaining lines, values ahead:

- Redness 1 hr (eye [8]): 0.25-
- Stinging (eye [8]): 0-2
Compound: Poloxamer 188

- Redness 1 hr (eye [8]): 0.25
- Stinging (eye [8]): 0
Compound: Polyoxyl 35 castor oil

- Redness 1 hr (eye [8]): 0.5
- Stinging (eye [8]): 0.25
Compound: Polysorbate 80

- Redness 1 hr (eye [8]): 0.25-
- Stinging (eye [8]): 0-2
Compound: Tyloxapol
